Tests used:
Assay type in all cases: biochemical
[1] = molecular target: T1, FKRP (fukutin-related protein) (Mus musculus, UniProt Q8CG64); assay: transfer of radiolabel to alpha-dystroglycan (scintillation counting; SDS-PAGE phosphorimaging); conditions: labelled compound; acceptor rabbit alpha-dystroglycan fragments; 2 mM MnCl2, pH 6.5, 30 °C, 16 h
T1 construct: full ORF from mouse thymus cDNA, C-terminal SFB tag (S-tag, two FLAG, SBP), HEK293 lysate, streptavidin beads
T1 sequence (Q8CG64 1-494): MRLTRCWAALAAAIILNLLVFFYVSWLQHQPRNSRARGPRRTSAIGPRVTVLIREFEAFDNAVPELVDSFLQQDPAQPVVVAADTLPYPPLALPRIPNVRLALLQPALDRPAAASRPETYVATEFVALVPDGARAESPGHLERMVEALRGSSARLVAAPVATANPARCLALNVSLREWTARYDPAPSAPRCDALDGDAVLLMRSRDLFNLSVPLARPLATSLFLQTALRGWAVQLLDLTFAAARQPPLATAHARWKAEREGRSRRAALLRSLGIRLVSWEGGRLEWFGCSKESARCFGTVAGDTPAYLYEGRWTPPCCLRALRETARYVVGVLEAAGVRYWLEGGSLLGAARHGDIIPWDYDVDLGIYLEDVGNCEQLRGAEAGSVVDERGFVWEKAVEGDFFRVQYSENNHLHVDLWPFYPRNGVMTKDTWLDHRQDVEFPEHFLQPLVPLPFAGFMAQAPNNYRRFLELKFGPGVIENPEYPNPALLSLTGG

FKTN (fukutin) = molecular target: T2, FKTN (fukutin) (Mus musculus, UniProt Q8R507); assay: as above; conditions: labelled compound; acceptor rabbit alpha-dystroglycan fragments; 2 mM MnCl2, pH 6.5, 30 °C, 16 h
T2 construct: full ORF from mouse brown adipose tissue cDNA, C-terminal SFB tag (S-tag, two FLAG, SBP), HEK293 lysate, streptavidin beads
T2 sequence (Q8R507 1-461): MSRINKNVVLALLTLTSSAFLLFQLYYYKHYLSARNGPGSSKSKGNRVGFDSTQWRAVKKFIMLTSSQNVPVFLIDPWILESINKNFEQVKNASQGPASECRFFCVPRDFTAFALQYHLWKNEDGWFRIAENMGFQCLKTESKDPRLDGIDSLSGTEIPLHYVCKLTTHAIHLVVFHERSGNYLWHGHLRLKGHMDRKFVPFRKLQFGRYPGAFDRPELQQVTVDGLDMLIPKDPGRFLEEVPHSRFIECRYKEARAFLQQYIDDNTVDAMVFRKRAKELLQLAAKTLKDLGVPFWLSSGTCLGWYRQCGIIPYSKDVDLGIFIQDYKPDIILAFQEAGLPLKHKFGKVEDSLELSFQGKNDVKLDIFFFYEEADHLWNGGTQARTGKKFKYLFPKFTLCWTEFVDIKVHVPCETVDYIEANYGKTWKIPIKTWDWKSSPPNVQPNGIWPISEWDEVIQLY

ISPD (mouse Ispd) = molecular target: T3, ISPD (mouse Ispd) (Mus musculus, UniProt Q5RJG7); assay: HPLC (strong anion exchange) of CDP-ribitol formed; conditions: 1 mM CTP
T3 construct: gene Crppa
T3 sequence (Q5RJG7 1-447): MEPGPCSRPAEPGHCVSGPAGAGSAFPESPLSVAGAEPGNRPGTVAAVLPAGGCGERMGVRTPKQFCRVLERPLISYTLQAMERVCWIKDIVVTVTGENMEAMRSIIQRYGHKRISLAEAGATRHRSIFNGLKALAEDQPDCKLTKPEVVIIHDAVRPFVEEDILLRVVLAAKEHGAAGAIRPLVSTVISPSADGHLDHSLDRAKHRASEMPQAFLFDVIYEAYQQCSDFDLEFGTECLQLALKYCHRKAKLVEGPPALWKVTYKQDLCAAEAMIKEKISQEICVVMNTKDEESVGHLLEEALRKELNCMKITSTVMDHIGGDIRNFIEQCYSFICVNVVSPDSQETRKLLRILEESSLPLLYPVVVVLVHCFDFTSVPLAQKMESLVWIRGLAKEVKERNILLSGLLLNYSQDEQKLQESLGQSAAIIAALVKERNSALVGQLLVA

`Nc1ccn([C@@H]2O[C@H](COP(=O)(O)OP(=O)(O)OC[C@@H](O)[C@@H](O)[C@@H](O)CO)[C@@H](O)[C@H]2O)c(=O)n1` [CDP-ribitol] was tested, and the “transfer of radiolabel to alpha-dystroglycan (scintillation counting); SDS-PAGE p” value [1] was “both FKTN and FKRP were able to transfer ribitol phosphate from CDP-ribitol onto α-dystroglycan” and the “transfer of radiolabel to alpha-dystroglycan (scintillation counting); SDS-PAGE p” value (FKTN (fukutin)) was “both FKTN and FKRP were able to transfer ribitol phosphate from CDP-ribitol onto α-dystroglycan”.

With `Nc1ccn([C@@H]2O[C@H](COP(=O)(O)OP(=O)(O)OP(=O)(O)O)[C@@H](O)[C@H]2O)c(=O)n1` [CTP] the “HPLC (strong anion exchange) of CDP-ribitol formed” value (ISPD (mouse Ispd); D-ribitol-5-P as co-substrate, 2 mM MgCl2, pH 7.8, 37 °C) was “Activity of ISPD on CTP and D-ribitol-5-P”.

With `O=P(O)(O)OC[C@@H](O)[C@@H](O)[C@@H](O)CO` [D-ribitol-5-P] the “HPLC (strong anion exchange) of CDP-ribitol formed” value (ISPD (mouse Ispd); 2 mM MgCl2, 20 mM KCl, 2 mM DTT, pH 7.8, 37 °C) was “we clearly observed a CDP-ribitol pyrophosphorylase activity (Fig. 1b)”.

Source: paper PMC4873967, “ISPD produces CDP-ribitol used by FKTN and FKRP to transfer ribitol phosphate onto α-dystroglycan” (Nature Communications, 2016)
